According to patent EP0017543B1, “Benzothiazole derivatives, process for their preparation and their therapeutical uses” (Albert ROLLAND S.A. Société dite, priority 1979, dated 1980):

Legend:
[1] = system: agrégation plaquettaire provoquée in vitro par l'ADP; test: ADP-induced platelet aggregation in vitro in platelet-rich rat plasma; format: cell-based; conditions: plasma de rat enrichi en plaquettes
[2] = system: torsions à la phénylbenzoquinone chez la souris; test: Phenylbenzoquinone writhing test (analgesic activity); format: in vivo; conditions: dose de 12,5 mg/kg, 24 heures après son administration
Description: L'activité analgésique des composés de formule 1 a été mise en évidence dans le test des torsions à la phénylbenzoquinone chez la souris. Ainsi, l'acide de formule 1 (racémique) possède dans ce test une DE50 de 3 à 6 mg/kg P.O. Cette activité analgésique est prolongée dans le temps, une dose de 12,5 mg/kg de ce composé entraînant encore une analgésie de 42%, 24 heures après son administration.

Solubility in water = format: physicochemical
Description: Le sel de pyrrolidine de l'acide (phényl-2 benzothiazolyl-6)-2 propionique est préparé par action d'I g d'amine sur 4 g d'acide en solution dans le méthanol. Il fond à 142°C.

[3] = system: biosynthèse des prostaglandines; test: Protection against arachidonic acid toxicity (lethal dose) in mice; format: in vivo, souris

CC(C(=O)O)c1ccc2nc(-c3ccccc3)sc2c1 (racemic)
concentration active par rapport à l'acide acétyl salicylique [1]: actif à une concentration dix fois plus faible que l'acide acétyl salicylique

CC(C(=O)O)c1ccc2nc(-c3ccccc3)sc2c1 (racemic) [Exemple 1, acide (phényl-2 benzothiazolyl-6)-2 propionique]
analgésie [2]: 42%

CC(C(=O)O)c1ccc2nc(-c3ccccc3)sc2c1 (racemic) [Exemple 3, (phényl-2 benzothiazolyl-6)-2 propionate de sodium]
solubilité dans l'eau (Solubility in water): soluble dans l'eau | activité contre la toxicité de l'acide arachidonique ([3]; voie intraveineuse, same doses (0,5 mg/kg)): actifs aux mêmes doses

CC(C(=O)O)c1ccc2nc(-c3ccccc3)sc2c1 (racemic) [Exemple 4, sel de pyrrolidine de l'acide (phényl-2 benzothiazolyl-6)-2 propionique]
solubilité dans l'eau (Solubility in water): soluble dans l'eau

CC(C(=O)O)c1ccc2nc(-c3ccccc3)sc2c1 (single isomer, unassigned) [Exemple 8a, acide (phényl-2 benzothiazolyl-6)-2 propionique]
activité contre la toxicité de l'acide arachidonique, comparison of enantiomers and racemate ([3]; route not stated for the comparison): activité comparable à celle du racémique (exemple 1), et supérieure à celle de son homologue lévogyre
